According to paper PMC2796783, “Pharmacological Characterization of Inositol 1,4,5-tris Phosphate Receptors in Human Platelet Membranes” (Cardiovascular Psychiatry and Neurology, 2009):

Legend:
[1] = system: T1, Ins(1,4,5)P3 receptors in human platelet membranes; assay: displacement of […] [3H]Ins([…])P3, filtration, log probit analysis; type: binding; conditions: 20 nM [3H]Ins(1,4,5)P3, 50 mM Tris-HCl pH 8.5, 1 mM EDTA, 4 °C, 10 min
T1 construct: gene ITPR1; native receptor in crude platelet membranes of healthy human subjects; not purified; tetrameric channel

[2] = system: T1, Ins(1,4,5)P3 receptors in human platelet membranes; assay: radioligand saturation binding, filtration, Scatchard (EBDA); conditions: 50 mM Tris-HCl pH 8.5, 1 mM EDTA, 1 mM 2-mercaptoethanol, 4 °C, 10 min; labelled compound; crude platelet membranes; single site

Row | SMILES | IC50 [1] [nM] | IC50 ([1]; error exceeds the value) [nM] | Kd [2] [nM]
1 | O=P(O)(O)O[C@H]1[C@@H](O)[C@H](O)[C@@H](OP(=O)(O)O)[C@H](OP(=O)(O)O)[C@H]1O [D-Ins(2,4,5)P3] | 1900 ± 680 |  | 
2 | O=P(O)(O)O[C@@H]1[C@@H](O)[C@H](OP(=O)(O)O)[C@@H](OP(=O)(O)O)[C@H](O)[C@@H]1O [L-Ins(1,4,5)P3] | 354000 ± 37000 |  | 
3 | O=P(O)(O)O[C@@H]1[C@@H](O)[C@@H](O)[C@@H](OP(=O)(O)OC[C@H](O)CO)[C@H](O)[C@H]1OP(=O)(O)O [GPIP2] | 4970 ± 1830 |  | 
4 | O=P(O)(O)O[C@@H]1[C@H](O)[C@H](O)[C@@H](OP(=O)(O)O)[C@H](OP(=O)(O)O)[C@H]1O [[^3H]Ins(1,4,5)P3] |  | 300 ± 500 | 22.1 ± 2.34
